Measured values reported in US12492223B2, “Peptide compositions capable of binding lanthionine synthetase C-like protein (LanCl) and uses thereof” (priority 2021, dated 2025).
Values joined by “and” are separate entries in the source; they are usually repeats but may differ in a detail not shown here. Identical values can stand only once. Like-named read-outs stand apart in the source and are kept apart here.

Legend:
[1] = test system: Chung model rats; assay: In vivo model of neuropathic pain (II): spinal nerve ligation (Chung) model, paw withdrawal threshold; parameters: species or system rat; conditions: mean ± SEM, n=6
Experimental: The spinal nerve ligation (Chung) model was prepared as described in Example 4, above. Briefly, sixty-four adult male Sprague-Dawley rats, 8-9 weeks old, weighing 250-350 g at the time of surgery, were purchased from Charles River UK Ltd. The animals were housed in groups of 4 in an air-conditioned room on a 12-hour light/dark cycle. Food and water were available ad libitum. Animals were allowed to acclimatise to the environment for experiments for three days by leaving them on a raised metal mesh for at least 40 minutes. The baseline paw withdrawal threshold (PWT) was examined using a series of graduated von Frey hairs for 3 consecutive days before surgery and re-assessed on the 7th day after surgery and on the 12th to 14th day after surgery before drug dosing.
Each rat was anaesthetized with 5% isoflurane mixed with oxygen (2 L per min) followed by an intramuscular (i.m.) injection of ketamine 60 mg/kg plus xylazine 10 mg/kg. The back was shaved and sterilized with povidone-iodine. The animal was placed in a prone position and a para-medial incision was made on the skin covering the L4-6 level. The L5 spinal nerve was carefully isolated and tightly ligated with 6/0 silk suture. The wound was then closed in layers after a complete haemostasis. A single dose of antibiotics (Amoxipen, 15 mg/rat, i.p.) was routinely given for prevention of infection after surgery. The animals were placed in a temperature-controlled recovery chamber until fully awake before being returned to their home cages.
Animals with validated neuropathic pain state were randomly divided into 4 experimental groups: Vehicle (5% DMSO first then in 0.9% saline), 3 mg/kg LAT9997, 3 mg/kg LAT9997×1, and 3 mg/kg LAT1233×1. Each group contained 6 animals.
RSVEGS (SEQ ID NO:9; LAT9997), SVEGS (SEQ NO: 62; LAT9997×1) and ALNSS (SEQ ID NO:63; LAT1233×1) were dissolved in 5% DMSO first then in 0.9% saline, which also served as the vehicle control. All compounds were provided from GenScript for Lateral Pharma. All vehicle/compounds were administrated intravenously at 1 ml/kg body weight.
The animals were placed in individual Perspex boxes on a raised metal mesh for at least 40 min. Starting from the filament of lowest force (1 gram (g)), each vFH filament was applied perpendicularly to the centre of the ventral surface of the paw until it slightly bent for 6 seconds. If the animal withdrew or lifted its paw upon stimulation, a filament with force immediately lower than that tested was used. If no response was observed, a filament with force immediately higher was then tested. The lowest amount of force required to induce reliable responses (positive in 2 out of 3 trials) was recorded as the value of the PWT.
PWT was assessed once daily for three days before surgery (pre D1, Pre D2 and D0) and on day 7 following surgery for monitoring the development of mechanical allodynia.
All drug tests were carried out on the 13th to 17th day after surgery. […]
One-way analysis of variance (ANOVA) (IBM statistics SPSS, Version 27) was used for statistical analysis to compare PWT of different groups at the same time points. When appropriate, Fisher's Least Significant Difference (LSD) post-hoc test was used to compare drug treatment groups to the control groups. A paired Student's t-test (Microsoft Excel 365) was used to compare values of different time points in the same group. To characterise the drug-induced change in PWT relative to vehicle, vehicle values were subtracted from the appropriate drug values. The significance level was set at P<0.05.

[2] = test system: HKx31 (H3N2); format: in vivo, mice; parameters: key to PMN activity score / Viral titre activity score / BAL IL-6 activity score: 0: inactive; 1: less active than the peptide of SEQ ID NO:38; 2: comparable or more active than the peptide of SEQ ID NO:38
[3] = test system: A549 cells; assay: A549 proliferation + stress assay (restoration of viability of Taxol-treated cells, CellTiter-Glo); format: cell-based, human; parameters: key to Estimated Activity in A549 proliferation + stress assay: Inactive: no activity up to 100 μM; WEAK: some or variable restoration of cell viability at 50-100 μM; MODERATE: moderate dose-dependent restoration of cell viability at >25 μM; STRONG: clear dose-dependent restoration of cell viability from 1-5 μM upwards; conditions: for Estimated Activity in A549 proliferation + stress assay: 350 μM Taxol, 16 hours, peptide 1-100 μM
Experimental: An assay was developed that involves stressing cells with a dose of the chemotherapeutic agent, Taxol, that causes a 50% inhibition of cell viability when compared to untreated cells. Peptides were then added to the cell cultures at increasing concentrations to assess their ability to restore the viability of the Taxol-treated cells.
Briefly, A549 cells were cultured in opaque-walled multiwell plates with 50000 A549 cells/well in culture medium (DMEM medium ref 11960-044 Thermoscientific, +10% FBS ref 10270-106 Gibco, Thermoscientific, +1% Na pyruvate ref S8636-100 ML, Sigma, +1%, Glutamax ref35050061, Thermoscientific, +1% Penicillin-Streptomycin, ref 11074440001, Sigma) 100 μl per well for 96-well plates. Control wells containing medium without cells were used to obtain a value for background luminescence. Cells were incubated at 37° C. in 5% CO2 overnight.
100 μL of medium+DMSO+peptides or medium+Taxol+peptides (at the different concentrations) were added to each well and incubated for 16 hours at 37° C. 5% CO2.
Cell morphology, viability and confluency were assessed by phase contrast microscopy. The CellTiter-Glo® Luminescent Cell Viability Assay (G7571, Promega—a homogeneous method to determine the number of viable cells in culture based on quantitation of the ATP present) was then used to quantify the number of metabolically active cells, according to the manufacturer's instructions. 100 μl volume of CellTiter-Glo® Reagent was added to the 100 μL volume of cell culture medium present in each well, Contents were mixed for 2 minutes on an orbital shaker to induce cell lysis and after incubating the plates at room temperature for 10 minutes to stabilize luminescent signal luminescence was recorded with an integration time of 0.5 seconds using a CLARIOstar multi well luminometer (BMG Labtech)

[4] = 1 hour after 3 mg/kg intravenously
[5] = 2 hours after 3 mg/kg intravenously
[6] = 4 hours after 3 mg/kg intravenously
[7] = 1 hour after 3 mg/kg intravenously, listed as LAT9997
[8] = 2 hours after 3 mg/kg intravenously, listed as LAT9997
[9] = 4 hours after 3 mg/kg intravenously, listed as LAT9997
[10] = Pre-dosing, 3 mg/kg group, listed as LAT9997, 3 mg/kg
[11] = 1 hour after 3 mg/kg intravenously, listed as LAT1233x1
[12] = 1 hour after 3 mg/kg intravenously, listed as LAT1233×1
[13] = 2 hours after 3 mg/kg intravenously, listed as LAT1233x1
[14] = 2 hours after 3 mg/kg intravenously, listed as LAT1233×1
[15] = 4 hours after 3 mg/kg intravenously, listed as LAT1233x1
[16] = 4 hours after 3 mg/kg intravenously, listed as LAT1233×1
[17] = Pre-dosing, 3 mg/kg group, listed as LAT1233x1, 3 mg/kg
[18] = Pre-dosing, 3 mg/kg group, listed as LAT1233×1, 3 mg/kg

SVEGS [SEQ ID NO: 62]
contralateral Paw withdrawal threshold [1, 4]: 15.00 ± 0.00 g
ipsilateral Paw withdrawal threshold [1, 4]: 11.17 ± 1.74 ▴** g
contralateral Paw withdrawal threshold [1, 5]: 15.00 ± 0.00 g
ipsilateral Paw withdrawal threshold [1, 5]: 12.67 ± 1.56 ▴*** g
contralateral Paw withdrawal threshold [1, 6]: 15.00 ± 0.00 g
ipsilateral Paw withdrawal threshold [1, 6]: 11.00 ± 1.41 ▴** g
contralateral Paw withdrawal threshold ([1]; Pre-dosing, 3 mg/kg group): 15.00 ± 0.00 g
ipsilateral Paw withdrawal threshold ([1]; Pre-dosing, 3 mg/kg group): 3.33 ± 0.42 g

41 (RALNSS; SITE 1 Arg 1 is bonded to Ser 6; SITE 6 Ser 6 is bonded to Arg 1) [compound 41]
PMN activity score ([2]; mouse, in vivo, 10 mg/kg): 1
reducing the PMN infiltrate in BAL fluid, compared with the peptide of SEQ ID NO:38 ([2]; single 10 mg/kg dose): relatively less effective

RSVEGS [SEQ ID NO: 9]
contralateral Paw withdrawal threshold [1, 7]: 15.00 ± 0.00 g
ipsilateral Paw withdrawal threshold [1, 7]: 7.83±1.72 g and 7.83 ± 1.72 ^ g
contralateral Paw withdrawal threshold [1, 8]: 15.00 ± 0.00 g
ipsilateral Paw withdrawal threshold [1, 8]: 9.67±1.73 g and 9.67 ± 1.73 ▴* g
contralateral Paw withdrawal threshold [1, 9]: 15.00 ± 0.00 g
ipsilateral Paw withdrawal threshold [1, 9]: 8.17±1.60 g and 8.17 ± 1.60 ^ g
contralateral Paw withdrawal threshold [1, 10]: 14.17 ± 0.83 g
ipsilateral Paw withdrawal threshold [1, 10]: 3.33 ± 0.42 g

63 (ALNSS) [compound 63]
Viral titre activity score ([2]; single 10 mg/kg dose, day 3, relative to SEQ ID NO:38): 0
Estimated Activity in A549 proliferation + stress assay [3]: MODERATE (moderate dose-dependent restoration of cell viability at >25 μM)

43 (RALRTK) [compound 43]
reducing the PMN infiltrate in BAL fluid, compared with the peptide of SEQ ID NO:38 ([2]; single 10 mg/kg dose): did not show any changes

ALNSS [SEQ ID NO: 63]
contralateral Paw withdrawal threshold [1, 11]: 15.00 ± 0.00 g
ipsilateral Paw withdrawal threshold [1, 11]: 10.67 ± 1.67 ▴** g
contralateral Paw withdrawal threshold [1, 12]: 15.00 ± 0.00 g
ipsilateral Paw withdrawal threshold [1, 12]: 10.67 ± 1.67 g
contralateral Paw withdrawal threshold [1, 13]: 14.17 ± 0.83 g
ipsilateral Paw withdrawal threshold [1, 13]: 11.50 ± 1.80 ▴** g
contralateral Paw withdrawal threshold [1, 14]: 14.17 ± 0.83 g
ipsilateral Paw withdrawal threshold [1, 14]: 11.50 ± 1.80 g
contralateral Paw withdrawal threshold [1, 15]: 15.00 ± 0.00 g
ipsilateral Paw withdrawal threshold [1, 15]: 10.17 ± 1.17 ▴** g
contralateral Paw withdrawal threshold [1, 16]: 15.00 ± 0.00 g
ipsilateral Paw withdrawal threshold [1, 16]: 10.17 ± 1.17 g
contralateral Paw withdrawal threshold [1, 17]: 15.00 ± 0.00 g
ipsilateral Paw withdrawal threshold [1, 17]: 3.33 ± 0.42 g
contralateral Paw withdrawal threshold [1, 18]: 15.00 ± 0.00 g
ipsilateral Paw withdrawal threshold [1, 18]: 3.33 ± 0.42 g

23 (RPVESS) [compound 23]
IL-6 levels in the BAL fluid ([2]; 10 mg/kg single dose): as effective
viral titres ([2]; 10 mg/kg single dose, day 3): effective
BAL IL-6 activity score ([2]; mouse, in vivo, 10 mg/kg): 1
PMN activity score ([2]; mouse, in vivo, 10 mg/kg): 1
Viral titre activity score ([2]; mouse, in vivo, 10 mg/kg): 2
reducing the PMN infiltrate in BAL fluid, compared with the peptide of SEQ ID NO:38 ([2]; single 10 mg/kg dose): relatively less effective

11 (SCRSRPVESSC) [compound 11]
Estimated Activity in A549 proliferation + stress assay [3]: Inactive
restoration of A549 viability ([3]; Taxol-treated A549 cells): did not
